Assays:
[1] = system: CHO-KI cells; assay: Ultrasound mediated transfection of CHO-KI cells with GFP chromosomes; type: cell-based
Description: Vesicles were prepared at a lipid concentration of 700 nmol/ml lipid (cationic lipid/DOPE 1:1) as follows. In a glass tube (10 ml) 350 nmol cationic lipid (SAINT-2) was mixed with 350 nmol dioleoylphosphatidylethanolamine (DOPE), both solubilized in an organic solvent (Chloroform, Methanol or Chloroform/Methanol 1:1, v/v). Dioleoylphosphatidylethanolamine (DOPE; Avanti Polar Lipids, Alabaster, Ala.) forms inverse hexagonal phases in a membrane and weakens the membrane. Other effectors that may be used are cis-unsaturated phosphatidylethanolamines, cis-unsaturated fatty acids, and cholesterol.
The solvent was evaporated under a stream of nitrogen (15 min/ 250 μl solvent at room temperature). The remaining solvent was removed totally by drying the lipid for 15 min in a desiccator under high vacuum from a vacuum pump. To the dried mixture was added 1 ml ultrapure water. This was vortexed vigorously for about […]. The resulting solution was sonicated in an ultrasonication bath (Laboratory Supplies Inc. NY) until a clear solution was obtained. The resulting suspension contained a population of unilamellar vesicles with a size distribution between 50 to 100 nm.
CHO-KI cells were grown at 37°, 5% CO2, in CHO-S-SFM 2 Medium, (Gibco BRL, Paisley, UK). Between 2×10^5 and 5×10^5 cells were plated onto sterile glass slides in a 12 well plate 24 h before usage.
(§1) Transfection of the cells was performed as follows. The medium was removed from the cells, and the cells were washed twice with HBSS (Hanks balanced salt solution without Phenol Red (Gibco BRL, UK)) at 37° C. Then 500 μl HBSS at 37° C. was added per well, followed by 10 μl of the freshly prepared vesicle solution (prepared in Example 2) to yield a final concentration of 23.3 nmol/ml.
(§2) Alternatively, the medium was removed from the cells, and the cells were washed twice with HBSS. 500 μl HBSS/lipid solution at 37° C. was added to each well. The HBSS/lipid solution was prepared by adding 1 μl ethanolic lipid solution (prepared as described above) to 500 μl HBSS under vigorous vortexing. The plates were then sealed with parafilm tape and shaken gently at room temperature for 30 min. After incubation, ultrasound was applied at an output energy of 0.5 Watt/cm^2 for 60 sec through the bottom of the plate to the cells. The ultrasound was mediated by an ultrasound gel (Aquasonic 100, Parker, N.J.) between transducer and plate. The ultrasound was applied with an ImaRx Sonoporator 100. Immediately after applying ultrasound one GFP chromosome per seeded cell (2×10^5-5×10^5) (prepared in Example 1) was added. The plate was then sealed again and shaken gently for 1 h at room temperature. […]

[2] = system: Hep-G2 cells; assay: Ultrasound mediated transfection of Hep-G2 cells with GFP chromosomes; type: cell-based
Description: as §1, §2

[3] = system: A9 cells; assay: Ultrasound mediated transfection of A9 cells with GFP chromosomes; type: cell-based, murine
Description: as §1, §2

[4] = system: V79-4 (Chinese Hamster Lung fibroblast) cells; assay: Flow cytometry measurement of delivery of IdU labeled ACes with transfection agents; type: cell-based; conditions: percentage of transfected cells containing IdU labeled ACes, 1×10^6 ACes complexed with agent, agent dose in microliters per Table 2
Description: All compounds were tested in a Chinese Hamster lung fibroblast line (V79-4, ATCC number CCL-39). Approximately 17 hours (2 cell doublings) prior to transfection, exponentially growing cells were trypsinized and plated at 250,000 cells per well into a 6 well petri dish with Dulbecco's Modified Eagle Medium (Life Technologies, Burlington, ON) and supplemented with 10% FBS (Can Sera, Rexdale ON)). At the time of transfection, the number of cells per well was estimated to be approximately 1 million. For transfection, each individual manufacturer's protocol for complexing to naked DNA was followed, with the exception that the amount of transfection agent used was varied, to reflect the different amount and type of DNA present, as well as the different ionic strength of the complexing. […]
The percentage of transfected cells containing IdUrd-labeled ACes was determined using flow cytometry and collecting FITC fluorescence. Data were accumulated to form bivariate channel distribution showing forward scatter versus green fluorescence (IdUrd-FITC). The fluorescence level at which cells were determined to be positive was established by visual inspection of the histogram of negative control cells such that the gate for the negative cells was set such that 1% appeared in the positive region. […]

[5] = Saint-2/DOPE 1:1, ultrasound 0.5 Watt/cm^2 for 60 sec

Structure (SMILES) | cells remained on the glass slide after transfection ([1]; Saint-2/DOPE 1:1, ultrasound 0.5 Watt/cm^2 for 60 sec, visual inspection) [%] | GFP positive cells, of original population ([1]; after 48 hours) [%] | remaining cells positive for green fluorescent protein expression ([1]; after 48 hours, of the cells remaining on the slide) [%] | cells containing an intact artificial chromosome (FISH) ([1]; after culturing for two weeks) [%] | cells remained on the glass slide after transfection [2, 5] [%] | remaining cells positive for green fluorescent protein expression ([2]; of the cells remaining on the slide) [%] | cells remained on the glass after transfection [3, 5] [%] | remaining cells positive for green fluorescent protein expression ([3]; of the cells remaining on the glass) [%] | DELIVERY % IdU positive (24 hours) [4] [%]
CCCCCCCCC=CCCCCCCCCC(CCCCCCCCC=CCCCCCCCC)c1cc[n+](C)cc1.[Cl-] (stereo not drawn) [Saint-2, 1-methyl-4-(1-octadec-9-enyl-nonadec-10-enylenyl) pyridinium chloride] | 30 | 3 | 10 | 1.4 | 30 | 80 | 30 | 50 | –
CCCCCCCCCCCCCCN=C(CCNCCCCCCCCCCCCCC)NC(C)(C)C [CLONFECTIN, N-t-butyl-N′-tetradecyl-3-tetradecyl-aminopropionamidine] | – | – | – | – | – | – | – | – | 0.61

From US6936469B2, “Methods for delivering nucleic acid molecules into cells and assessment thereof” (Chromos Molecular Systems Inc., priority 2001, dated 2005)
